Measurements: US20260337212A1, “IP4-4,6 SUBSTITUTED DERIVATIVE COMPOUNDS FOR USE IN THE TREATMENT, INHIBITION OF PROGRESSION, AND PREVENTION OF ECTOPIC CALCIFICATION” (SANIFIT THERAPEUTICS, S.A., priority 2022, published 2026)

Tests used:
[1] = In vitro inhibition of calcium phosphate crystallization in human plasma (spectrophotometric); type: biochemical; conditions: 0-100 μM, 1.5 mM phosphate, 12.5 mM calcium, pH 7.4, 30 min, rt, read-out: Relative Potency (EC50, inhibition of calcium phosphate crystallization)
Method in brief: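 Human plasma spiked with compound (0-100 μM), centrifuged, then brought to final 1.5 mM phosphate and 12.5 mM calcium, pH 7.4. Absorbance at 550 nm read every 3 min for 30 min at rt; inhibition from slopes (6-24 min, absorbance vs log time) relative to blank plasma.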

[2] = Rat calcinosis cutis/calciphylaxis model (vitamin D3 and FeCl3): skin plaque calcification; type: in vivo, Sprague Dawley rat; conditions: for Skin plaque % inhibition of calcification: FeCl3 0.5 mg/kg
Description: The dose-response efficacy of IP4-4,6 derivatives in the prevention and treatment of calcinosis cutis and calciphylaxis (CUA) induced by vitamin D3 and FeCl3 in a rat model was used. The model evaluated the effects of Compound 27 and IP6 on the formation of calcified skin plaques in rats for a duration of 8 days. Animals were sensitized at low concentration (LC, 35,000 IU/kg) and high concentration (HC, 50,000 IU/kg) doses of vitamin D3. A FeCl3 solution (0.5 mg/kg) was used as challenger to induce the formation of skin plaques. All animals were weighed every day before treatment.
Eighty-six male Sprague Dawley (SD) rats (Envigo Corp., Huntingdon, GB) weighing approximately 250-300 g were used. The animals were fed with a standard LASQCdiet® Rod14-H diet (LASvendi, Soest, DE). The animals were divided in 8 groups, 6 to 12 animals per group, as follows:
The following solutions were prepared: (a) 17,500 IU/mL (LC) and 25,000 IU/mL (HC) vitamin D3 (cholecalciferol, Duphafral D3 1000; Zoetis Inc., Parsippany, NJ, US), (b) 0.3 mg/mL FeCl3 (FeCl3·6H2O, 99%, Scharlab S. L., Barcelona, E S), (c) 30 mg/mL IP6 (660 g/mol phytic acid, pH 6.5-7.7), and (d) 15, 30, and 50 mg/mL Compound 27 (754.45 g/mol free acid, pH 6.5-7.7). All solutions were prepared in a 0.9% (w/v) physiological saline NaCl medium. An application volume of 2 mL/kg was employed.
Group 1—Control (sham), 6 animals. Animals in group 1 were administered subcutaneously physiological saline (0.9% (w/v) NaCl solution daily from D1 to D3 in the interscapular space, and with one saline 0.9% injection at each of the two ventral sites in the thorax on D4. Animals in group 1 were not administered Vit D or FeCl3 solutions.
Group 2—Physiological saline solution low concentration (Vehicle LC): Vit D 35,000 IU/kg, 0.5 mg/kg FeCl3 solution, 10 animals. Vit D at dose 35,000 IU/kg was administered subcutaneously x 3 consecutive days (D1, D2, D3), and one 0.5 mg/kg FeCl3 injection at each of the two ventral sites in the thorax on D4. This group received a daily saline 0.9% s.c. treatment (D1 to D8).
Group 3—Compound 27 60 mg/kg LC: Vit D 35,000 IU/kg, 0.5 mg/kg FeCl3, 10 animals. Vit D at dose 35,000 IU/kg was administered subcutaneously x 3 consecutive days (D1, D2, D3), and one 0.5 mg/kg FeCl3 injection at each of the two ventral sites in the thorax on D4. This group received a daily Compound 27 s.c. treatment at 60 mg/kg dose (D1 to D8).
Group 4—Physiological saline solution high concentration (Vehicle HC): Vit D 50,000 IU/kg, 0.5 mg/kg FeCl3, 12 animals. Vit D at dose 50,000 IU/kg was administered subcutaneously x 3 consecutive days (D1, D2, D3), and one 0.5 mg/kg FeCl3 injection at each of the two ventral sites in the thorax on D4. This group received a daily saline 0.9% s.c. treatment (D1 to D8).
Group 5—IP6 60 mg/kg HC, Vit D 50,000 IU/kg, 0.5 mg/kg FeCl3, 12 animals. Vit D at dose 50,000 IU/kg was administered subcutaneously x 3 consecutive days (D1, D2, D3), and one 0.5 mg/kg FeCl3 injection at each of the two ventral sites in the thorax on D4. This group received a daily IP6 s.c. treatment at 60 mg/kg dose (D1 to D8).
Group 6—Compound 27 30 mg/kg HC, Vit D 50,000 IU/kg, 0.5 mg/kg FeCl3, 12 animals. Vit D at dose 50,000 IU/kg was administered subcutaneously x 3 consecutive days (D1, D2, D3), and one 0.5 mg/kg FeCl3 injection at each of the two ventral sites in the thorax on D4. This group received a daily Compound 27 s.c. treatment at 30 mg/kg dose (D1 to D8).
Group 7—Compound 27 60 mg/kg […], Vit D 50,000 IU/kg, 0.5 mg/kg FeCl3, 12 animals. Vit D at dose 50,000 IU/kg was administered subcutaneously x 3 consecutive days (D1, D2, D3), and one 0.5 mg/kg FeCl3 injection at each of the two ventral sites in the thorax on D4. This group received a daily Compound 27 s.c. treatment at 60 mg/kg dose (D1 to D8).
Group 8—Compound 27 100 mg/kg HC, Vit D 50,000 IU/kg, 0.5 mg/kg FeCl3, 12 animals. […]

4,6-O-bis(5-acetamidopentyl)-myo-inositol-1,2,3,5-tetrakis(phosphate) octasodium salt [Compound 27]
EC50 [1]: ≤ 5 µM
Skin plaque % inhibition of calcification ([2]; 30 mg/kg s.c. daily D1-D8, HC (vitamin D3 50,000 IU/kg)): 96.8 ± 0.7 %
Skin plaque % inhibition of calcification ([2]; 60 mg/kg s.c. daily D1-D8, HC (vitamin D3 50,000 IU/kg)): 98.2 ± 0.1 %
Skin plaque % inhibition of calcification ([2]; 60 mg/kg s.c. daily D1-D8, LC (vitamin D3 35,000 IU/kg)): 95.7 ± 0.9 %
Skin plaque % inhibition of calcification ([2]; 100 mg/kg s.c. daily D1-D8, HC (vitamin D3 50,000 IU/kg)): 98.6 ± 0.1 %
Inhibition of the formation of skin plaque ([2]; 30, 60, 100 mg/kg s.c.): inhibits the formation of skin plaque in rats in a dose-response manner
Degree of inhibition of skin plaque calcification compared with IP6 ([2]; same dose (60 mg/kg)): higher than that reached by IP6 at the same dose
